Laboratory results as given in patent publication US11666645B2, “CD200 inhibitors and methods of use thereof” (REGENTS OF THE UNIVERSITY OF MINNESOTA, priority 2015, dated 2023).
Entries after “also recorded” stand apart in the source; their conditions may differ.

What was measured:
glioma-derived exosomes = assay: Vaccination of non-tumor bearing mice with OVA + glioma-derived exosomes +/- inhibitor; assay type: in vivo, mouse; settings: OVA+glioma-derived exosomes+antagonist
Method: (§1) FIGS. 12A-12C. CD200 inhibitor reverses the suppressive effects of the tumor environment. Tumor and non-tumor bearing mice were vaccinated with OVA+Poly:ICLC +/− the CD200 inhibitor 6059 and analyzed for FIG. 12A) SIINFEKL/Kb^+CD8^+ T cell expansion (“SIINFEKL” disclosed as SEQ ID NO: 18). FIG. 12B) Lymphocytes were harvested and stimulated with SIINFEKL peptide (SEQ ID NO: 18). Supernatants were analyzed for TNFα and IFNγ secretion. FIG. 12C) The CD200 inhibitor 6059 was added to OVA+exosomes. Error bars indicate +/−SEM (n=4/group; *P<0.05; by t-test).
(§2) These experiments support the hypothesis that exosomes express the CD200 protein thereby inhibiting the ability to prime a T cell response in the draining lymph nodes of glioma bearing mice. Other CD200 inhibitors were similarly evaluated (FIGS. 3A-3B, 9A-9B and 24A-24B).

GL261 tumor bearing mice [1] = assay: GL261 glioma model, vaccination with tumor lysate +/- CD200 inhibitor, tumor growth and survival
Method: FIG. 5B) Mice were imaged weekly for tumor growth. The following groups were studied: saline (1), tumor lysate (2), and tumor lysate+CD200 inhibitor (6059) (3). FIG. 5C) Percent survival post inoculation for saline (1), tumor lysate (2), and tumor lysate+CD200 inhibitor (3) groups.
In vivo survival study. […] All vaccinations were administered in the back of the neck in tumor bearing mice.

tumor bearing mice [2] = assay: Recall response: lymphocytes of vaccinated tumor bearing mice restimulated with OVA/SIINFEKL, cytokine release; assay type: in vivo, mouse; settings: lymphocytes from cervical lymph nodes of vaccinated tumor bearing mice restimulated, supernatant after 48 hrs
Text: FIGS. 4A-4B. Tumor bearing or non-tumor bearing mice were vaccinated on day 2 and 8 with an agonist or CD200 inhibitor only, and on days 3-6 and 10 with OVA+Poly:ICLC +/− the CD200 inhibitor 6059. On day 10, were harvested and stimulated with OVA protein to measure a recall response via cytokine release. FIG. 4A) TNF alpha (PG/ML) levels from tumor bearing mice. FIG. 4B) IFN gamma (PG/ML) levels in tumor bearing mice.
as §1, §2

tumor bearing mice [3] = assay: Prime-boost OVA vaccination of tumor bearing mice, SIINFEKL specific CD8+ T cell expansion by flow cytometry; assay type: in vivo, mouse; settings: tumor bearing mice vaccinated with OVA+Poly:ICLC +/- inhibitor, whole blood
Method: FIGS. 3A-3B. FIG. 3A) Vaccination scheme. FIG. 3B) Tumor bearing or non-tumor bearing mice were vaccinated on day 2 and 8 with an agonist (4012) or CD200 inhibitor (6059) only, and on days 3-6 and […] with OVA+Poly:ICLC +/− the agonist (4012) or CD200 inhibitor (6059). B) Mice were bled on day 10, whole blood was stained with an anti-CD8 and SIINFEKL specific detramer (SEQ ID NO: 18), lysed and analyzed by flow cytometry.
as §1, §2

GL261 tumor bearing mice [4] = assay: GL261 glioma model, inhibitor inoculated into the tumor site in the brain, then tumor lysate + inhibitor; assay type: in vivo, mouse; settings: 10 μg inhibitor in the brain at tumor coordinates on day 2, then weekly tumor lysate + inhibitor
Method: Tumor-bearing mice were inoculated in the brain with 10 μg of the inhibitor 6059 at the same coordinates at which the tumor was injected two days previously. This was followed by weekly injections of tumor lysate+inhibitor (FIGS. 5A-5B).

[5] = tested on: Human immature dendritic cells; assay: Human immature dendritic cells pulsed with P1 peptide or alanine-substituted versions, cytokine production; assay type: cell-based; settings: human CD11b-derived immature dendritic cells (GM-CSF, IL4), supernatants
Method: FIGS. 13A-13B. Human CD11b cells were isolated. Purified CD11b cells were differentiated to immature dendritic cells using GM-CSF and IL4. Cells were pulsed with P1, P2, P3 and P4 CD200 inhibitors (see Table 2). Supernatants were analyzed for FIG. 13A) cytokine or FIG. 13B) chemokine production.
FIG. 16. Human CD11b cells were isolated and the purified CD11b cells were differentiated to immature dendritic cells using GM-CSF and IL4. Cells were pulsed with human P1 peptide, or a mutated version thereof comprising an alanine substitution (denoted by P1 and the amino acid substitution and position; e.g., P1A1, P1A2, P1A3, P1A4, P1A5, P1A6, etc.) (see, Table 2). Supernatants were analyzed for cytokine production.

[6] = tested on: splenocytes + OT-1 T cells; assay: Splenocytes pulsed with OVA + inhibitor, OT-1 T cells added, cytokine production by flow cytometric bead array; assay type: cell-based, mouse; settings: splenocytes pulsed 24 hours with OVA+inhibitor, 48 hours with OT-1 T cells
Method: FIGS. 11A-11B. Splenocytes were pulsed with OVA+an inhibitor peptide and incubated for 24 h. Following incubation, cells were washed, purified OT1 were added to wells and incubated for an additional 48 hours then analyzed for FIG. 11A) TNFa and IL-6 production; and FIG. 11B) IL-2 and IL-17 production. Error bars indicate +/−SEM (n=4/group; *P<0.05; ** P<0.01).
We hypothesize that the two different human CD200 inhibitor peptides (peptide 1=hP1 & peptide 2=hP2, table 2) are hitting different activation receptors on dendritic cells, although only one has been identified. […] We want to generate the immune response most beneficial for our patients. These conclusions were supported by experiments where splenocytes were pulsed with OVA+selected CD200 inhibitors (6061, 6069, 4004, 4006, 4013) for 24 hours. The splenocytes were then washed and cultured for 48 hours with the addition of OT-1 T cells. The cultures were then assessed for cytokine production using a flow cytometric bead array.

PPIA = PPIA production in monocytes with CD200 inhibitor; assay type: cell-based; settings: peptide binds the CD200 activating receptor
Text: FIGS. 18A-18E. Experimental Model. CD200 is solubilized from the tumor or endothelial interacting on its receptor (CD200R). This CD200/CD200R interaction induces the upregulation of PPIA through the MYC pathway decreasing TNF alpha and IL2 production needed for an immune response (FIG. 18A).
These antagonist have been reported to reverse the differentiation to as myeloid-derived suppressor cells following interaction with soluble CD200 (FIG. 18C) (Moertel et al., J Immunother Can; 2(1):46) and in vivo (FIG. 23). The mechanism of […] protein inhibition has been determined through the upregulation of an immunosuppressive protein PPIA (FIGS. 18A-18E) which is inhabited with the use of the CD200 inhibitor P1A12.

NTIGDGGCY [Inhibitor 6059]
Suppression induced by exosomes (glioma-derived exosomes): partially reversed the suppression induced by exosomes | Survival benefit (GL261 tumor bearing mice [1]; GL261 mice vaccinated weekly with tumor lysates + inhibitor vs saline or tumor lysates): increased survival benefit | Tumor growth (GL261 tumor bearing mice [1]; GL261 mice, tumor lysate (65 μg) + inhibitor (50 μg), imaged weekly, vs saline or tumor lysate): slowed tumor growth | Enhancement of survival (GL261 tumor bearing mice [1]; GL261 mice, tumor lysate (65 μg) + inhibitor (50 μg), vs saline or tumor lysate): 30% | Recall response via cytokine release (TNF alpha, IFN gamma): effect on tumor induced suppression (tumor bearing mice [2]): modulate/reverse glioma-induced suppression; also recorded: reversed the suppressive effects of the tumor microenvironment | SIINFEKL specific CD8+ T cell expansion: effect on tumor induced suppression (tumor bearing mice [3]): reversed tumor induced suppression; also recorded: reversed the suppressive effects of the tumor microenvironment; also recorded: reversed the suppressive effects in tumor-bearing mice | Tumor growth after inhibitor into the tumor site in the CNS (GL261 tumor bearing mice [4]): Tumor growth was delayed

SQKVSATACLTLY [hP1A6]
Cytokine production (response) vs human P1 peptide [5]: enhanced TNF-α and IL-β production | Cytokine production (response) vs human P1 peptide ([5]; listed as P1A6): significantly enhanced response

SQKVSGTACLTLY [Inhibitor 4006, P3 in b288]
Cytokine profile (TNFa, IL-6, IL-2, IL-17) [6]: different cytokine profiles

TASLRCSLKTSQE [Inhibitor 4004]
Cytokine profile (TNFa, IL-6, IL-2, IL-17) [6]: different cytokine profiles

VTWQKKKAVSPAN [Inhibitor P1A12, P1 in b288]
Production of PPIA (PPIA): inhibits the production of PPIA
